Experimental data from PMC8664950, “Potent but transient immunosuppression of T-cells is a general feature of CD71^+ erythroid cells” (Communications Biology, 2021).
pIC50: −log10 of the molar value.

How the values were obtained:
ARG2 = target: T1, ARG2 (Homo sapiens, UniProt P78540); assay: colorimetric urea-production arginase assay with recombinant enzyme; type: biochemical
T1 construct: recombinant human ARG2 (E. coli)
T1 sequence (P78540 23-354): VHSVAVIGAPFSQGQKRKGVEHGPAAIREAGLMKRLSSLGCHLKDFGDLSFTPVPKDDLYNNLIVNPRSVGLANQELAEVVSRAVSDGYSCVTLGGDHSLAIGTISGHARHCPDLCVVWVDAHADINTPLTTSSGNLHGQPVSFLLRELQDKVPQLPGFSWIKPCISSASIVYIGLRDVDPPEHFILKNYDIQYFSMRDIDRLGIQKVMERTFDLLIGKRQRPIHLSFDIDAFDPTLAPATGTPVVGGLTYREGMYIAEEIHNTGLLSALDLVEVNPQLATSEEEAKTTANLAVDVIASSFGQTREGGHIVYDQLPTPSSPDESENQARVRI

ARG1 = target: T2, ARG1 (Homo sapiens, UniProt P05089); assay: as above; type: biochemical
T2 construct: recombinant human ARG1 (E. coli)
T2 sequence (P05089 1-322): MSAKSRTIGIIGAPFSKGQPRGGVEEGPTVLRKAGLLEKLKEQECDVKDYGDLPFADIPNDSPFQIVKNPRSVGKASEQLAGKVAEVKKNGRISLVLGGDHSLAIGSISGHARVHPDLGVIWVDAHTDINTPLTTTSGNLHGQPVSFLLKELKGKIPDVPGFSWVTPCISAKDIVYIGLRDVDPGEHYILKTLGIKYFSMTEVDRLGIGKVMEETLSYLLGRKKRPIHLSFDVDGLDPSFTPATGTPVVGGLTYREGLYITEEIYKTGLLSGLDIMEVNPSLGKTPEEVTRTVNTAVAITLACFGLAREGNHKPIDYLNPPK

NNc1ccccc1 [PHZ, phenylhydrazine] was tested, and the pIC50 (ARG2) was 4.21 and the pIC50 (ARG1) was 2.99.
